Test results published in patent US11975048B2, “Long-acting fatty acid-conjugated GnRH derivatives and pharmaceutical compositions containing same” (NOVEL PHARMA INC., priority 2019, dated 2024).
Square brackets hold non-standard residues; d marks the D form. Peptide text beside a SMILES is read from it. * marks the point of attachment. Palmitoyl = CCCCCCCCCCCCCCCC(=O)*

Assays:
[1] = cited from earlier work
[2] = system: DU-145; test: Cell viability assay (CCK-8), prostate cancer cell line DU-145; format: cell-based
Procedure: (§1) GnRH derivatives are clinically applied to the therapy of diseases including breast cancer, prostate cancer, endometriosis, central precocious puberty, and the like. […] An assay for cell viability was performed using the Cell Counting Kit-8 (CCK-8, manufactured by DOJINDO). Each of the cell lines was separated from the T75 flask by trypsinization and transferred to 96-well plates at a density of 1×10^4 cells/mL for DU-145 and at a density of 1×10^5 cells/mL for PC3 and LNCaP, followed by incubation for one hour for attachment.
(§2) Subsequently, each cell line was treated with 100 μM and 200 μM of each of the derivatives of Comparative Examples 1 to 3 and Examples 9 to 16 and the control. In brief, 1% methyl β-cyclodextrin was used as a negative control for cell viability while 0.1% sodium dodecyl sulfate (SDS) served as a positive control. After 48 hours of incubation, the existing culture medium was removed, and 100 μL of fresh culture medium and 10 μL of CCK-8 solution were applied to each cell line. Again, after 48 hours of incubation, the medium solution was replaced by 100 μL of fresh culture medium and 10 μL of CCK-8 solution. The cells were incubated for 4 hours, and then the absorbance was measured at 450 nm to assess cell viability.

[3] = system: PC3; test: Cell viability assay (CCK-8), prostate cancer cell line PC3; format: cell-based
Procedure: as §1, §2

[4] = system: LNCaP; test: Cell viability assay (CCK-8), prostate cancer cell line LNCaP; format: cell-based
Procedure: as §1, §2

[5] = Blood concentration over time and pharmacokinetic analysis after single subcutaneous administration (LC/MSMS); format: in vivo, female SD rats; details: rats, 12.5 mg/kg s.c. once
Procedure: The present inventor carried out animal experiments (female SD rats, nine weeks old) in order to examine the increased in vivo half-lives of the prepared fatty acid-conjugated GnRH derivatives. […] DMSO (dimethyl sulfoxide) was used as a solvent as needed. Before administration and at 0.5, 1, 2, and 6 hours and on days 1, 3, 7, 10, 14, 21, and 28 after administration, blood samples were taken from the tail vein of the rats and measured for the blood concentrations of Leuprolide and the derivatives of the Examples, using LC/MSMS. If the concentration reached about 4 ng/mL at a specific time point, no measurements were further made for the next time point.
In the following table, the numerical unit is ng/mL.
The measurement results are graphically depicted in FIGS. 10 to 12. Based on the results, pharmacokinetic analysis was carried out by calculating the half-life (t1/2), clearance rate (CL), volume of distribution (Vd), time to reach the maximum concentration following drug administration (Tmax), maximum concentration following drug administration (Cmax), and systemic exposure to drug (AUCt). The analysis results are as follows.

[6] = system: ovary of female rats; test: Assay for ovarian morphological change (H&E stained ovaries); format: in vivo; details: single subcutaneous dose 12.5 mg/kg (as cyclodextrin compositions), day 28, versus non-treated and methyl-β-cyclodextrin groups
Procedure: Experiments were carried out to examine whether or not the fatty acid-conjugated GnRH derivatives maintain the functional characteristics and incur a morphological change in the ovary.
The pharmaceutical compositions of Examples 9, 10, 13, 14, 15, and 16 were each subcutaneously injected at a single dose of 12.5 mg/kg once at the back of the neck to female rats 9 weeks old. Rats to which no drugs were administered were used as a non-treated control while an aqueous solution of 3 mg of methyl-β-cyclodextrin was injected to a negative control. Each group consisted of 3 rats.
On day 28 after injection, the rats were subjected to an autopsy to excise the ovaries which were then stained with hematoxylin-eosin (H&E stain).
Briefly, ovaries were stained with H&E and observed as follows.
11. After finishing the above procedures, the specimen slides were scanned using a ScanScope® AT slider scanner (Aperio) and the images thus stored were analyzed using the ImageScope program (Aperio). The scanned images are depicted in FIGS. 6 to 9.
It is known that when administered to rats, a GnRH agonist reduces the formation of secondary follicles and Graafian follicles (see: Mohammadbeigi et al., Short-term Administration of Gonadotropin-releasing Hormone Agonist (Buserelin) Induces Apoptosis in Rat Ovarian Developmental Follicles, July 2016). In this experiment, secondary and Graafian follicles on ovary images in each treatment group were indicted by arrows to examine whether the number of the follicles is reduced or not.

[7] = emulsion, same dose; cited from earlier work
[8] = treatment conc. 200 μM, listed as Comparative Example 3

CC(C)C[C@H](NC(=O)CNC(=O)[C@H](Cc1ccc(O)cc1)NC(=O)[C@H](CO)NC(=O)[C@H](Cc1c[nH]c2ccccc12)NC(=O)[C@H](Cc1cnc[nH]1)NC(=O)[C@@H]1CCC(=O)N1)C(=O)N[C@@H](CCCNC(=N)N)C(=O)N1CCC[C@H]1C(=O)NCC(N)=O [C. Example 1]
in vivo half-life in circulating blood [1]: 2 to 4 min

CC(C)C[C@H](NC(=O)[C@@H](Cc1c[nH]c2ccccc12)NC(=O)[C@H](Cc1ccc(O)cc1)NC(=O)[C@H](CO)NC(=O)[C@H](Cc1c[nH]c2ccccc12)NC(=O)[C@H](Cc1c[nH]cn1)NC(=O)[C@@H]1CCC(=O)N1)C(=O)N[C@@H](CCCNC(=N)N)C(=O)N1CCC[C@H]1C(=O)NCC(N)=O [C. Example 3, pyroGlu-His-Trp-Ser-Tyr-D-Trp-Leu-Arg-Pro-Gly-NH2]
Viability of DU-145 relative to negative control 1% methyl-β-cyclodextrin (%) ([2]; treatment conc. 100 μM): 100.92 ± 2.98%
Viability of DU-145 relative to negative control 1% methyl-β-cyclodextrin (%) ([2]; treatment conc. 200 μM): 94.27 ± 3.47%
Viability of DU-145 relative to negative control 1% methyl-β-cyclodextrin (%) [2, 8]: about 94%
Viability of PC3 relative to negative control 1% methyl-ß-cyclodextrin (%) ([3]; treatment conc. 100 μM): 99.67 ± 3.17%
Viability of PC3 relative to negative control 1% methyl-ß-cyclodextrin (%) ([3]; treatment conc. 200 μM): 95.44 ± 4.03%
Viability of PC3 relative to negative control 1% methyl-ß-cyclodextrin (%) [3, 8]: about 95%
Viability of LNCaP relative to negative control 1% methyl-β-cyclodextrin (%) ([4]; treatment conc. 100 μM): 92.89 ± 4.33%
Viability of LNCaP relative to negative control 1% methyl-β-cyclodextrin (%) ([4]; treatment conc. 200 μM): 90.22 ± 4.03%
Viability of LNCaP relative to negative control 1% methyl-β-cyclodextrin (%) [4, 8]: about 90%

CCCCCCCCCCCCCCCC(=O)N[C@@H](CCC(N)=O)C(=O)N[C@@H](Cc1c[nH]cn1)C(=O)N[C@@H](Cc1c[nH]c2ccccc12)C(=O)N[C@@H](CO)C(=O)N[C@@H](Cc1ccc(O)cc1)C(=O)N[C@H](CC(C)C)C(=O)N[C@@H](CC(C)C)C(=O)N[C@@H](CCCNC(=N)N)C(=O)N1CCC[C@H]1C(=O)NCC [Example 4, Palmitic acid-Gln-His-Trp-Ser-Tyr-D-Leu-Leu-Arg-Pro-NHEt] (Palmitoyl-QHWSY[dL]LRP-NHEt)
AUC(0-t) ([5]; female, SD, rat, blood, sc, 12.5 mg/kg, read-out: AUCt (systemic exposure to drug) (converted)): 5190 ng·h/mL
Cmax ([5]; female, SD, rat, blood, sc, 12.5 mg/kg, read-out: Cmax (maximum concentration)): 52.2 ng/mL
half-life ([5]; female, SD, rat, blood, sc, 12.5 mg/kg, read-out: t1/2 (half-life) (converted)): 115 h
Tmax ([5]; female, SD, rat, blood, sc, read-out: Tmax (time to reach the maximum concentration) (converted)): 6 h
CL (clearance rate) ([5]; 12.5 mg/kg): 0.051 (mg/kg)/(ng/mL)/Day
Vd (volume of distribution) ([5]; 12.5 mg/kg): 0.351 (mg/kg)/(ng/mL)

CCCCCCCCCCCCCCCC(=O)N[C@@H](CCC(N)=O)C(=O)N[C@@H](Cc1c[nH]cn1)C(=O)N[C@@H](Cc1c[nH]c2ccccc12)C(=O)N[C@@H](CO)C(=O)N[C@@H](Cc1ccc(O)cc1)C(=O)N[C@H](CC(C)C)C(=O)N[C@@H](CC(C)C)C(=O)N[C@@H](CCCNC(=N)N)C(=O)N1CCC[C@H]1C(=O)NCC [Example 6, Palmitic acid-Gln-His-Trp-Ser-Tyr-D-Leu-Leu-Arg-Pro-NHEt] (Palmitoyl-QHWSY[dL]LRP-NHEt)
Tmax (time to reach the maximum concentration) [5]: 6 h
CL (clearance rate) ([5]; 12.5 mg/kg): 0.075 (mg/kg)/(ng/mL)/Day
Cmax (maximum concentration) ([5]; 12.5 mg/kg): 45.7 ng/mL
Vd (volume of distribution) ([5]; 12.5 mg/kg): 0.436 (mg/kg)/(ng/mL)
t1/2 (half-life) ([5]; 12.5 mg/kg): 96.7 h

CCCCCCCCCCCCOS(=O)(=O)[O-].[Na+] [Positive Control (0.1% SDS), sodium dodecyl sulfate]
Viability of DU-145 relative to negative control 1% methyl-β-cyclodextrin (%) ([2]; positive control, 0.1% SDS): 18.18 ± 2.32%
Viability of PC3 relative to negative control 1% methyl-ß-cyclodextrin (%) ([3]; positive control, 0.1% SDS): 15.11 ± 1.72%
Viability of LNCaP relative to negative control 1% methyl-β-cyclodextrin (%) ([4]; positive control, 0.1% SDS): 20.45 ± 1.58%

Arachidic acid-Gln-His-Trp-Ser-Tyr-D-Leu-Leu-Arg-Pro-NHEt ({Arachidic acid}-QHWSY[dL]LRP-NHEt; also: acetate salt) [Example 8]
numbers of secondary or Graafian follicles in the ovary [6]: decreased

Arachidic acid-Glu-His-Trp-Ser-Tyr-D-Leu-Leu-Arg-Pro-NHEt ({Arachidic acid}-EHWSY[dL]LRP-NHEt; also: acetate salt) [Example 7]
numbers of secondary or Graafian follicles in the ovary [6]: decreased

Lauric acid-Gln-His-Trp-Ser-Tyr-D-Leu-Leu-Arg-Pro-NHEt ({Lauric acid}-QHWSY[dL]LRP-NHEt; also: acetate salt) [Example 2]
numbers of secondary or Graafian follicles in the ovary [6]: decreased

Lauric acid-Glu-His-Trp-Ser-Tyr-D-Leu-Leu-Arg-Pro-NHEt ({Lauric acid}-EHWSY[dL]LRP-NHEt; also: acetate salt) [Example 1]
numbers of secondary or Graafian follicles in the ovary [6]: decreased

Palmitic acid-Glu-His-Trp-Ser-Tyr-D-Leu-Leu-Arg-Pro-NHEt (Palmitoyl-EHWSY[dL]LRP-NHEt; also: acetate salt) [Example 5]
numbers of secondary or Graafian follicles in the ovary [6]: decreased

dexamethasone palmitate
anti-inflammatory effect relative to dexamethasone alone [7]: 5.6 fold
